Assay [1] concerns phosphorylated tau / NeuN positive neurons in cortex. Put plainly: Brain immunohistochemistry in htau mice (AT8, NeuN). In kind it is in vivo, htau mouse. Conditions: 100 mg/kg p.o. q.o.d. As for the experimental part:
Brain Tissue Histology. Left brain hemispheres of htau mice were harvested for total RNA. Right brain hemispheres (unfrozen) of htau mice were stored in 10% neutral buffered formalin (VWR) for 48 h. Tissue processing, embedding, and sectioning were performed and generated by the Scripps Florida Histology Core. Briefly, tissue was embedded in paraffin using a Sakura Tissue-Tek VIP5 paraffin processor, sectioned at 4 μm, and then mounted on positively charged slides for further immunostaining. The slides were stained on a Leica BondMax Immunostaining platform with the following primary antibodies: AT8 (MN1020, Invitrogen; 1:100 dilution) and NeuN (MAB377B, Chemicon; 1:500 dilution). After the slides were washed three times with 1×DPBS, a DAB Substrate Kit (Vector Laboratories, Inc.) was used to detect the primary antibodies per the manufacturer's protocol. After staining was complete, the slides were dehydrated, cover-slipped with Cytoseal 60 (Thermo Scientific), and imaged with a Leica DMI3000 B upright fluorescent microscope using 20× or 60× objective. Quantification was performed in a blinded fashion using ImageJ in which positivity was identified as aggregates (purple staining of AT8 or brown staining of NeuN) with diameter over 20 μm and staining signal over 185 that were kept constant across all treatment groups.

The test system of assay [2] is endogenous MAPT pre-mRNA in LAN5 cells. Description: Chem-CLIP / C-Chem-CLIP in LAN5 cells. Type of assay: cell-based. The settings on record: pre-incubation. As for the experimental part: Measuring Cellular Occupancy by Chem-CLIP and C-Chem-CLIP. LAN5 cells were grown to ~80% confluency in 100 mm diameter dishes. HeLa cells were transfected as described in the Luciferase Reporter Assay to Study Exon 10 Alternative Splicing except they were re-plated in 100 mm diameter dishes and grown to ~80% confluency (~1 day). The cells were then treated with 1.5 μM of 3 or 4 for 12 h. For C-Chem-CLIP, dilutions of competing compounds 1 or 2 were pre-incubated with cells for 12 h prior to adding 3. After addition of 3, the cells were incubated for an additional 12 h. After the treatment period, whether for Chem-CLIP or C-Chem-CLIP studies, the cells were washed with 10 mL of 1×DPBS. Ice-cold 1×DPBS (10 mL) was then added to the plate followed by irradiation with 365 nm light in a UV Stratalinker 2400 (Stratagene). Cells were scraped with a cell scraper, transferred to a 15 mL conical vial, and collected by centrifugation. Total RNA was extracted using TRIzol LS Reagent (Invitrogen) per the manufacturer's protocol. […]
RT-qPCR was performed on RNA samples before and after pull-down as described in Real-Time Quantitative PCR to enable calculation of fold enrichment in the pulled down samples. Relative fold enrichment of tau pre-mRNA was measured using Equation 3: […]

Another assay relates to DDPAC model RNA. Put plainly: Optical melting, DDPAC RNA. Type of assay: binding. The settings on record: 2 at 1.5 μM. As for the experimental part: Optical Melting Experiments. The thermal stabilities of WT, DDPAC, and DDPAC+I17T model RNAs were analyzed by optical melting in the presence or absence of compound 1 or 2 as previously described.^18 The RNAs (2 μM) were heated to 95° C. in 1×PBS buffer and slowly cooled to room temperature. The samples were then cooled to 15° C. in the presence of compound 1 (10 μM; 0.1% (v/v) DMSO), 2 (1.5 μM; 0.1% (v/v) DMSO) or vehicle (0.1% (v/v) DMSO) and then heated to 85° C. at a rate of 1° C. per min. Absorbance as a function of temperature was measured at 260 nm using a Beckman Coulter DU800 UV/vis spectrophotometer. Melting curves were fitted with MeltWin 3.5.^31

Assay [3] relates to MAPT exon 10 splicing in LAN5 cells. Description: 4R/3R endogenous MAPT mRNA by RT-qPCR in LAN5 neuroblastoma cells. Type of assay: cell-based. On the procedure:
RNA Isolation and Real-Time Quantitative PCR (RT-qPCR). HeLa cells were treated as described in the Luciferase Reporter assay to Study Exon 10 Alternative Splicing. LAN5 cells were seeded in 12-well plates at 0.2×10^6 cells per well, treated with compound or ASO, and incubated for 48 h. Compound stocks prepared in DMSO and ASO stocks prepared in water were diluted in growth medium and added to cells. Total RNA was extracted from cells and analyzed via RT-qPCR to determine levels of 3R and 4R tau mRNA. In brief, the cells were washed with 1×DPBS and then lysed in the well using 300 μL of Lysis Buffer provided in a Quick-RNA MiniPrep kit (Zymo Research), which was used to extract total RNA per the manufacturer's protocol including the on-column DNase I digestion. The concentration of total RNA was measured by NanoDrop 2000 (Thermo Fisher Scientific). Only samples with OD260/OD280>1.8 were carried forward for analysis. Reverse transcription (RT) was carried out on 200 ng of total RNA using a qScript cDNA synthesis kit (QuantaBio) in a total volume of 10 μL according to the manufacturer's protocol. An Applied Biosystems QS5 384-well PCR system was used to complete qPCR reactions with Power SYBR Green Master Mix (Life Technologies), 600 nM each primer (Table S3), 20 ng of cDNA (1 μL of the RT reaction), in a total volume of 33 μL. Technical triplicates (10 μL each) were aliquoted into 384-well qPCR plates (Applied biosystems, 4483285). Subsequent qPCR analysis was performed using an Applied Biosystems QS5 384-well PCR system (software v.1.3.0). 4R/3R ratio were analyzed using ΔΔCt method using Equation 2: […]
where ΔCt 4R or ΔCt 3R is the difference between the Ct values for the 4R or 3R MAPT mRNA and a housekeeping gene (18S rRNA) in total RNA from cells.
On the technique in general: Quantitative PCR measures a nucleic acid by following its amplification.

Data on one compound can be found in patent US20260308158A1, “TARGETING RNAS ASSOCIATED WITH TAUOPATHIES WITH SMALL MOLECULES” (University of Florida Research Foundation, Incorporated, priority 2023, published 2026).

Structures are written as SMILES.

In the case of `COc1cc(N)ncc1CCCN(C)CCCn1cnc2c3ccccc3n(C)c2c1=O` [Compound 2, 3-(3-((3-(6-amino-4-methoxypyridin-3-yl)propyl)(methyl)amino)propyl)-5-methyl-3,5-dihydro-4H-pyrimido[5,4-b]indol-4-one], in assay [1], the “AT8 antibody immunoreactivity (phosphorylated tau)” value is “reduced antibody immunoreactivity throughout the cortex” and the “NeuN (neuron viability)” value is “enhanced”. Moreover, the “competition of cross-linking of 3” value in assay [2] is given as “competed by 1 or 2 in dose dependent fashion”. Besides, in the assay on DDPAC model RNA, the “increase of Tm” value was 1.36±0.11 °C. In addition, the inhibition at 1.5 µM in assay [3] (LA-N-5, 2 at 1.5 μM, LAN5, 48 h, RT-qPCR, read-out: reduction of 4R/3R ratio of MAPT RNA) is 56 ± 4%. Besides, the “PSI10 (PSI of MAPT exon 10) vs vehicle” value in assay [3] (LAN5 cells) is listed as “downregulated”.
